Values quoted from earlier work in patent US20140135284A1, “COMPOSITION OF AQUEOUS BUFFER SOLUTION FOR THE TREATMENT OF CELLULAR ENVIRONMENT AND ION CHANNELS AND METHODS FOR USING SAME” (priority 2007, published 2014).

Test system: inflammation
Settings: acid species studied, small reductions in pH

Compound: CC(O)C(=O)O (centres unmarked) [Lactic acid]
- effect on inflammation: effective anti-inflammatory

Compound: Cl [Hydrochloric acid]
- effect on inflammation: upregulated inflammation
